# Target: T1, DNA topoisomerase 1 (Homo sapiens) (UniProt P11387)
# T1 sequence (whole entry): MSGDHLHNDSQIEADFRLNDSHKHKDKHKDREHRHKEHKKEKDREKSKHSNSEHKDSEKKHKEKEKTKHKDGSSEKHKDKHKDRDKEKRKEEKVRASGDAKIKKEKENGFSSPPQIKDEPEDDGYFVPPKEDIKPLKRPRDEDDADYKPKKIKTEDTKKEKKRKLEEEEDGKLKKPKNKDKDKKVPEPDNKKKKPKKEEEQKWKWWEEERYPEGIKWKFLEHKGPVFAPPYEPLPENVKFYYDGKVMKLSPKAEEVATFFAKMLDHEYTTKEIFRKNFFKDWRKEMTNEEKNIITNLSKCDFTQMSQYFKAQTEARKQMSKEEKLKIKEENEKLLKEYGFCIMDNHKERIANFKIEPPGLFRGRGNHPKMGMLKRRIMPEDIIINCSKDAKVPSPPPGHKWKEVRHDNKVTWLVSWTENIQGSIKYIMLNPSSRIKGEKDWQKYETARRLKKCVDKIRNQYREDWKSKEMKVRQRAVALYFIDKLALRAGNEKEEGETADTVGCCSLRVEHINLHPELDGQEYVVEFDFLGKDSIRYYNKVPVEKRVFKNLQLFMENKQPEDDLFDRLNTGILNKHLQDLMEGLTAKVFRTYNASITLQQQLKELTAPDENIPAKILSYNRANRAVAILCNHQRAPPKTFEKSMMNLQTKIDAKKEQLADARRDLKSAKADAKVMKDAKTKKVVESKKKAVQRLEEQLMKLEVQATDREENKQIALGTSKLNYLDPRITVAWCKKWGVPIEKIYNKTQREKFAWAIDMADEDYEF
# Assay: Concentration relative to topotecan for topoisomerase DNA topoisomerase I cleavage
row,REC,SMILES
1,300,COc1cc2c(=O)n(CCN(C)C)c3c(cnc4cccc([N+](=O)[O-])c43)c2cc1OC
2,1,COc1cc2c(=O)n(CCCN(C)C)c3c4cc5c(cc4ncc3c2cc1OC)OCO5
3,2,COc1cc2c(=O)n(CCN(C)C)c3c4cc([N+](=O)[O-])ccc4ncc3c2cc1OC
4,0.8,COc1cc2c(cc1OC)-c1cnc3cc4c(cc3c1N(CCN(C)C)C2)OCO4
5,9,COc1cc2c(=O)n(CCN(C)C)c3c4cccc([N+](=O)[O-])c4ncc3c2cc1OC
6,0.3,COc1cc2c(=O)n(CCN(C)C)c3c4cc5c(cc4nnc3c2cc1OC)OCO5
7,6,COc1cc2c(=O)n(CCN(C)C)c3c4ccc([N+](=O)[O-])cc4ncc3c2cc1OC
